{"source": "patent EP3281632A1", "about": "“ARGON FOR USE IN THE PREVENTION OF BOTH CARDIAC AND CEREBRAL INJURY INDUCED BY ISCHEMIA/REPERFUSION FOLLOWING CARDIAC ARREST” (Societa'Italiana Acetilene & Derivati S.I.A.D. S.p.A. in …, priority 2016, dated 2018)", "key": {"[1]": {"tested_on": "cardiac arrest and CPR in the pig", "experiment": "Severe model of cardiac arrest and CPR in the pig, 4 hr ventilation after CPR", "type": "in vivo", "design": "circulating levels of hs-cTnT (median): unit not given here", "method": "In a severe model of cardiac arrest and CPR in the pig, treatment with inhaled argon allowed for concurrent cardiac and cerebral protection. After 12 min of untreated cardiac arrest and 5 min of CPR, animals were subjected to 4 hr ventilation with (a) 70% argon - 30% 02 or (b) 70% N2 - 30% 02."}, "[2]": {"tested_on": "cardiac arrest and CPR in the rat", "experiment": "Model of cardiac arrest and CPR in the rat, argon ventilation started during CPR", "type": "in vivo", "method": "In a model of cardiac arrest and CPR in the rat, treatment with inhaled argon was initiated early, concurrently with chest compression prior to resuscitation. After 7 min of untreated cardiac arrest, 5 min of CPR were initiated and animals were subjected to ventilation with (a) 70% argon - 30% 02 or (b) 70% N2 - 30% 02. The above ventilation strategies were continued up to 2 hrs following resuscitation."}, "[3]": {"tested_on": "acute myocardial infarction by LAD occlusion in the rat", "experiment": "Model of acute myocardial infarction by LAD occlusion in the rat", "type": "in vivo", "method": "In a model of acute myocardial infarction by LAD occlusion in the rat, ventilation with argon reduced myocardial injury. More in details, the LAD occlusion was removed after 30 min; 5 min before reperfusion, animals were randomized to 1 hour ventilation with: (1) 70% argon - 30% oxygen; or (2) 70% nitrogen - 30% oxygen. […] Moreover, a reduced inflammatory response in terms of neutrophil infiltration in the argon ventilation group compared to control group was observed (72 cells/mm^2 vs. 92 cells/mm^2)."}, "[4]": {"tested_on": "left anterior descending coronary artery occlusion (LAD)", "conditions": "rabbits; three 5-min cycles of 70% argon in oxygen prior to 30 min LAD occlusion; in comparison to control ventilation; cited from earlier work"}, "[5]": {"tested_on": "cardiac arrest, pigs", "conditions": "cited from earlier work"}, "[6]": {"tested_on": "rats resuscitated after cardiac arrest", "conditions": "post resuscitation ventilation with 70% argon, cited from earlier work"}, "[7]": {"conditions": "during the 4 hr of observation, compared to controls"}, "[8]": {"conditions": "argon during CPR and up to 2 hrs after resuscitation, compared to controls"}}}
{"smiles": "[Ar]", "note": "[argon]", "values": [{"measurement": "Cerebral Performance Category", "setting": "[1]; 12 min untreated cardiac arrest, 5 min CPR, 4 hr ventilation with 70% argon - 30% 02, control 3.4 ± 1.6", "result": "1.7 ± 1.3"}, {"measurement": "circulating levels of NSE (median)", "setting": "[1]; 4 hr ventilation 70% argon - 30% 02, control 21.2 ng/mL, p not significant", "result": 8.5, "unit": "ng/mL"}, {"measurement": "circulating levels of hs-cTnT (median)", "setting": "[1]; 4 hr ventilation 70% argon - 30% 02, control 8015 ng/mL, p < 0.05", "result": 1332}, {"measurement": "myocardial infarct size", "setting": "[1]; after argon treatment, compared to controls", "result": "significantly lower"}, {"measurement": "heart rate", "setting": "[1]; [7]", "result": "significantly lower"}, {"measurement": "mean arterial pressure", "setting": "[1]; [7]", "result": "higher"}, {"measurement": "stroke volume", "setting": "[1]; [7]", "result": "higher"}, {"measurement": "recovery of systolic myocardial function", "setting": "[1]; evaluated echocardiographically at 96 hr, compared to controls", "result": "significantly better recovery"}, {"measurement": "resuscitation rate", "setting": "[2]; 7 min untreated cardiac arrest, 5 min CPR with 70% argon - 30% 02 ventilation, control 85%", "result": 93, "unit": "%"}, {"measurement": "post resuscitation coronary perfusion pressure", "setting": "[2]; [8]", "result": "higher"}, {"measurement": "post resuscitation mean arterial pressure", "setting": "[2]; [8]", "result": "higher"}, {"measurement": "lactate/pyruvate ratio in the hippocampus", "setting": "[2]; cerebral microdialysis, compared to controls", "result": "lower"}, {"measurement": "left ventricle ejection fraction", "setting": "[2]; compared to the control ventilation", "result": "trend toward better"}, {"measurement": "neurological recovery", "setting": "[2]; compared to those ventilated with nitrogen and oxygen", "result": "significantly faster and better"}, {"measurement": "troponin T release", "setting": "[2]; trend, compared to the control ventilation", "result": "lower"}, {"measurement": "plasma level of myocardial troponin T", "setting": "[3]; 30 min LAD occlusion, 1 hour ventilation 70% argon - 30% oxygen from 5 min before reperfusion, after 6 hours, control 7432 ng/l, p < 0.05", "result": 3128, "unit": "ng/L"}, {"measurement": "neutrophil infiltration", "setting": "[3]; LAD occlusion, argon ventilation group, control 92 cells/mm^2", "result": 72, "unit": "cells/mm^2"}, {"measurement": "reduction of myocardial infarct size", "setting": "[4]", "result": 22, "unit": "%"}, {"measurement": "neurological recovery", "setting": "[5]; 70% argon-30% oxygen after ROSC, in contrast to nitrogen and oxygen", "result": "fast and complete"}, {"measurement": "post resuscitation increase in plasmatic cardiac troponin T", "setting": "[5]; 8 min untreated cardiac arrest, 5 min CPR, 70% argon-30% oxygen after ROSC", "result": "three-fold lower"}, {"measurement": "brain injury (histopathology)", "setting": "[5]; compared to control", "result": "lesser brain injury"}, {"measurement": "respiratory exchange or arterial blood gases", "setting": "[5]; ventilation with argon", "result": "did not impair"}, {"measurement": "neurological deficit score", "setting": "[6]; at all time points", "result": "significant improvements"}, {"measurement": "neuronal injury (histology)", "setting": "[6]", "result": "significant reduction"}]}
